Assay results: ChEMBL document CHEMBL1201862, “PubChem BioAssay data set” (2004)
Activity calls are given as the source filed them.

How the values were obtained:
[1] = biological target: T1, Voltage-gated N-type calcium channel alpha-1B subunit/Amyloid beta A4 precursor protein-binding family A member 1 (Homo sapiens, UniProt Q00975+Q02410); type: protein assay
[2] = biological target: T2, SUMO-activating enzyme (Homo sapiens, UniProt Q9UBT2); assay: inhibitors of in vitro SUMOylation cascade, primary screen, biochemical, HTRF, uHTS (AID 2006); type: protein-complex assay
[3] = biological target: T3, Polyadenylate-binding protein 1 (Homo sapiens, UniProt P11940); assay: PABP1 MLLE–PAM2 binding inhibitor potency, dose response, biochemical, fluorescence polarization, FITC-PAM2 peptide (AID 602259); type: functional; settings: read-out: IC50_Mean
[4] = cells; settings: HEK293
[5] = biological target: T4, Apoptotic protease-activating factor 1 (Homo sapiens, UniProt O14727); type: functional
T4 sequence (O14727 whole entry): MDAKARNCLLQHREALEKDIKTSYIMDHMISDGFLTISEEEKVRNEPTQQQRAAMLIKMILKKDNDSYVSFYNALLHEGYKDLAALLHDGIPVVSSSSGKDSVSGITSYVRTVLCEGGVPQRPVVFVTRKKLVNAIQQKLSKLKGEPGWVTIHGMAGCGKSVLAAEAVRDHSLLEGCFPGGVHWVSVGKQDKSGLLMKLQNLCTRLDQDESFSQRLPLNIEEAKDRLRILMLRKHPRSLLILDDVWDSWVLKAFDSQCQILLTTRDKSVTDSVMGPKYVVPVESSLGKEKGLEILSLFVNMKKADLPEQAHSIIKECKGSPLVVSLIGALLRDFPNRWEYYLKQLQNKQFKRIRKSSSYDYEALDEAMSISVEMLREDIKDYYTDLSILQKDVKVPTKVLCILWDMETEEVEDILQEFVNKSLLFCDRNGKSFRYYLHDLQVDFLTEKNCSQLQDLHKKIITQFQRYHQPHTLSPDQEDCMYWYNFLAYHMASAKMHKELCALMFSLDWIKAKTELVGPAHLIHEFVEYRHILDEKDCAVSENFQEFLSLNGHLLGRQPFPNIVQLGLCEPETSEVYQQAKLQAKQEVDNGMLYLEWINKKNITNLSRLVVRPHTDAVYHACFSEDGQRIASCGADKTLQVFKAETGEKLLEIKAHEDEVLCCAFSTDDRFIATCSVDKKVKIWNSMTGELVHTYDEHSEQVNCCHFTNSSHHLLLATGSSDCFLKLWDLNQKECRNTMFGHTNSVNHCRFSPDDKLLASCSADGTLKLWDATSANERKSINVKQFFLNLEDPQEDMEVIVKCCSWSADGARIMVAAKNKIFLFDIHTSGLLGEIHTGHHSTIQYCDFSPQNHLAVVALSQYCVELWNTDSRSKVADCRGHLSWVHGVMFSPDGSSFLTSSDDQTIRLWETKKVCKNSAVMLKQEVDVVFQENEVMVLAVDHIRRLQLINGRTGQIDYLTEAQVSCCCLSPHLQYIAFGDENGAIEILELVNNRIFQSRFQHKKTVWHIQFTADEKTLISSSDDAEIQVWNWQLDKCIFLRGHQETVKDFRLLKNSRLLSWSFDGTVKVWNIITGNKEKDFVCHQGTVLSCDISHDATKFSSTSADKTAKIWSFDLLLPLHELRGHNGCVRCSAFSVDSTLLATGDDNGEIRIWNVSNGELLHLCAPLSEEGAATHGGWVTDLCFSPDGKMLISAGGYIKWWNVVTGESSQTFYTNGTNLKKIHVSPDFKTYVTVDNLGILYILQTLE

[6] = biological target: Glucose-6-phosphate 1-dehydrogenase (Homo sapiens, UniProt P11413); assay: human G6PD enzyme inhibitors, dose response, selectivity assay for P. falciparum G6PD inhibitor project, biochemical, fluorescence (AID 504792); type: functional
[7] = biological target: T1, Voltage-gated N-type calcium channel alpha-1B subunit/Amyloid beta A4 precursor protein-binding family A member 1; type: protein assay; remark: listed apart in the source
[8] = biological target: Mannose-6-phosphate isomerase (Homo sapiens, UniProt P34949); assay: human PMI inhibitors, high substrate, primary screen, biochemical, fluorescence intensity, high mannose 6-phosphate (AID 1220)
[9] = biological target: T2, SUMO-activating enzyme; assay: SUMOylation inhibitor hit validation, confirmation, SUMOylation inhibitor project, biochemical, AlphaScreen (AID 2018); type: functional
[10] = biological target: T3, Polyadenylate-binding protein 1; assay: PABP1 MLLE–PAM2 interaction inhibitors, dose response, miRNA deadenylation inhibitor project, biochemical, fluorescence polarization, Cy5-PAM2 peptide, secondary (AID 602260); type: functional; settings: read-out: IC50_Mean
[11] = system: HEK293; assay: HEK293T cell cytotoxicity, dose response, cytotoxicity control, ATP luminescence, cherry-pick samples (AID 687005); type: functional, cell-based; settings: Homo sapiens;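 further: cells exposed to compound for 48 hours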
[12] = cytotoxicity in HEK293 cells, dose response, cytotoxicity control, cell-based, plate reader, cherry-pick (AID 651899); type: functional
[13] = HEK293 Cytotoxicity Assay Measured in Cell-Based System Using Plate Reader - 7071-01_Inhibitor_Dose_CherryPick_Activity_Set2.; type: functional
[14] = biological target: Adenosylmethionine-8-amino-7-oxononanoate aminotransferase (Mycobacterium tuberculosis, UniProt P9WQ81); assay: Mycobacterium tuberculosis BioA enzyme inhibitor Measured in Biochemical System Using Plate Reader - 2163-02_Inhibitor_Dose_CherryPick_Activity.; type: functional, Mycobacterium tuberculosis UT205
[15] = inhibitors of intracellular T. cruzi replication, confirmation, NIH3T3 host cells, beta-gal luminescence (AID 2044); type: functional, cell-based;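 further: intracellular parasites grown in NIH/3T3 mouse fibroblasts as host cells; luminescent beta-galactosidase reporter signal from transgenic T. cruzi replicating inside host cells; inhibitors lower the luminescence signal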
[16] = Luminescence Cell-Based Dose Retest to Confirm Inhibitors of Cancer Stem Cells. [Related pubchem assays (depositor defined):AID2717, AID2721]; type: functional; settings: Homo sapiens
[17] = biological target: Disintegrin and metalloproteinase domain-containing protein 17 (Homo sapiens, UniProt P78536); assay: ADAM17 protease inhibitors, dose response, counter-screen for ADAM10 exosite inhibitor project, biochemical, quenched FRET substrate (AID 743253)
[18] = system: Streptococcus sp. 'group A'; assay: growth inhibition of control SK(-) GAS strain, dose response, counter-screen for streptokinase expression inhibitor project, luminescence, kanamycin, BacTiterGlo, confirmation (AID 1900); type: functional, organism-based
[19] = biological target: T5, Streptokinase A (Streptococcus pyogenes serotype M1, UniProt P10520); assay: S. pyogenes streptokinase expression inhibitors, potency, dose response, plasminogen activation absorbance, OD405 (AID 1914); type: functional, Streptococcus pyogenes M1 GAS;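 further: secreted streptokinase activity via plasminogen activation per viability signal from cell pellet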
T5 sequence (P10520 whole entry): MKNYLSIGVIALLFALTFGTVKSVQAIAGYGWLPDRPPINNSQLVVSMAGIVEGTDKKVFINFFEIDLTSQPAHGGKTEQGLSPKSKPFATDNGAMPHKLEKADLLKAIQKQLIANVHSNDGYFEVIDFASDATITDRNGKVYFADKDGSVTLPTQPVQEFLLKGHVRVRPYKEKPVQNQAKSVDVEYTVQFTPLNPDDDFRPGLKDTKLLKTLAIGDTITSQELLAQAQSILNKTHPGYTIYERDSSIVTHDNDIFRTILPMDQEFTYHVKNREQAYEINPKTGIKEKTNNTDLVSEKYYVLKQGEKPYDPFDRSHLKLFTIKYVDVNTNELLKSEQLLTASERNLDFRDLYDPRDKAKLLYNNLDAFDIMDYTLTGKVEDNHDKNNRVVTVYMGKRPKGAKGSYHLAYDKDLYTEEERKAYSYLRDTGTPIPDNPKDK

[20] = cytotoxicity toward NIH3T3 fibroblasts, dose response, counter-screen, cell-based, ATP luminescence, mouse fibroblasts (AID 2010); type: functional;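 further: cells exposed to compound for about 90 hours before reading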
[21] = system: Streptococcus; assay: Group A Streptococcus viability loss, dose response, counter-screen for streptokinase expression inhibitor project, luminescence, BacTiterGlo (AID 1915); type: functional, organism-based;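 further: potency for reduction of bacterial viability or growth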
[22] = biological target: Oxysterols receptor LXR-beta (Homo sapiens, UniProt P55055); type: functional, cell-based;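 further: agonist activity at LXR measured by a cell-based luminescence readout across a dose range, run as a counterscreen for daf-12 agonists; HEK293 cells with Gal4-LXR fusion and GAL4-driven luciferase reporter; potency for activation of Gal4-LXR reporter so compounds are agonists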
[23] = biological target: T6, Protein RecA (Mycobacterium tuberculosis, UniProt P9WHJ3); assay: Fluorescence Cell-Free Homogeneous Dose Retest to Identify Inhibitors of RecA-Intein Splicing Activity. [Related pubchem assays (depositor defined):AID2097, AID2223, AID489010, AID492950]; type: functional
T6 sequence (P9WHJ3 whole entry): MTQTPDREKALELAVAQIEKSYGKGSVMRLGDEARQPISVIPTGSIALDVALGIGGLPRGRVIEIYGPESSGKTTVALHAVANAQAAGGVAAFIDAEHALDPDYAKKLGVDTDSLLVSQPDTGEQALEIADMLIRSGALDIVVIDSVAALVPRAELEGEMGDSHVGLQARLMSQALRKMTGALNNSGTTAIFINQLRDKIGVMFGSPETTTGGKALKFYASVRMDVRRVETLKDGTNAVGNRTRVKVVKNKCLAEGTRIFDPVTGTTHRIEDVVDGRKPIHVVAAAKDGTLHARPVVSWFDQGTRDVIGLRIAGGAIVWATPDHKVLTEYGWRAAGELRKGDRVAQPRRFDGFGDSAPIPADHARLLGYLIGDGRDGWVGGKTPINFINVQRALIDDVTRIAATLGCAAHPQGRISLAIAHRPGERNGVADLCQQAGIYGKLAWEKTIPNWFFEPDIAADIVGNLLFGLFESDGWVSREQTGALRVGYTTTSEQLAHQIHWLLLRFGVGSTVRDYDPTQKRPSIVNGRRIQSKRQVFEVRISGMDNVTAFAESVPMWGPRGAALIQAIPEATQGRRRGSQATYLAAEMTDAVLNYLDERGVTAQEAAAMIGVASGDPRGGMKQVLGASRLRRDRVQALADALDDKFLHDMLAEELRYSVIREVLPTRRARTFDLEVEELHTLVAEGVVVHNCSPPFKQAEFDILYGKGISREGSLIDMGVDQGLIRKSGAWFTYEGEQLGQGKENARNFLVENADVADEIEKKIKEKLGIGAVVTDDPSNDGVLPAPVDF

[24] = biological target: T7, Replicative DNA helicase DnaB (Mycobacterium tuberculosis, UniProt P9WMR3); assay: DnaB intein splicing inhibitors, dose response, biochemical, cell-free fluorescence (AID 449749); type: functional
T7 sequence (P9WMR3 whole entry): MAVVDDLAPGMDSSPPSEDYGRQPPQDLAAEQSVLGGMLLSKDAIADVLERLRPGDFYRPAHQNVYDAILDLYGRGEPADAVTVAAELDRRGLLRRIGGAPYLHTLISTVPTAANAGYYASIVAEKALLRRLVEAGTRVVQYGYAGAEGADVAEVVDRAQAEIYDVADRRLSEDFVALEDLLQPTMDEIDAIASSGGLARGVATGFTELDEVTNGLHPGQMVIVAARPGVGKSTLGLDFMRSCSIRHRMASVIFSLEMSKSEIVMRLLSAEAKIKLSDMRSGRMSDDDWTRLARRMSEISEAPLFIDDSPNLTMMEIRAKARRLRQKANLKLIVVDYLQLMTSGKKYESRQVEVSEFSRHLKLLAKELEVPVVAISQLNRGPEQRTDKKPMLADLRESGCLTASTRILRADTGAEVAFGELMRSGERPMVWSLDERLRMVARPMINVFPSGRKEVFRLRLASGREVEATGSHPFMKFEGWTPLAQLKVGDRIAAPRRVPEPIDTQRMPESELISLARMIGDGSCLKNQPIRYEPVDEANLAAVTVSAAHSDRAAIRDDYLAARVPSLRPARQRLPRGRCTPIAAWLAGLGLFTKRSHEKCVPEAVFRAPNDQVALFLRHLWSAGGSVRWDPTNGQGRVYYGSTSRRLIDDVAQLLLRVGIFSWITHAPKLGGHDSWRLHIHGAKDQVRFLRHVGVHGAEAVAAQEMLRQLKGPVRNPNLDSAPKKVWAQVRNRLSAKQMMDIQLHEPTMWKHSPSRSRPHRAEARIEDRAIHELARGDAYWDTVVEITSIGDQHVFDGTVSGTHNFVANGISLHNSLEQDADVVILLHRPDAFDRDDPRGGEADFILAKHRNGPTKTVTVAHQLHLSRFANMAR

[25] = biological target: Tyrosyl-DNA phosphodiesterase 2 (Homo sapiens, UniProt O95551); assay: human TDP2 enzyme inhibitors, dose response, biochemical, epi absorbance, IC50 (AID 743297)

T3 sequence (P11940 whole entry): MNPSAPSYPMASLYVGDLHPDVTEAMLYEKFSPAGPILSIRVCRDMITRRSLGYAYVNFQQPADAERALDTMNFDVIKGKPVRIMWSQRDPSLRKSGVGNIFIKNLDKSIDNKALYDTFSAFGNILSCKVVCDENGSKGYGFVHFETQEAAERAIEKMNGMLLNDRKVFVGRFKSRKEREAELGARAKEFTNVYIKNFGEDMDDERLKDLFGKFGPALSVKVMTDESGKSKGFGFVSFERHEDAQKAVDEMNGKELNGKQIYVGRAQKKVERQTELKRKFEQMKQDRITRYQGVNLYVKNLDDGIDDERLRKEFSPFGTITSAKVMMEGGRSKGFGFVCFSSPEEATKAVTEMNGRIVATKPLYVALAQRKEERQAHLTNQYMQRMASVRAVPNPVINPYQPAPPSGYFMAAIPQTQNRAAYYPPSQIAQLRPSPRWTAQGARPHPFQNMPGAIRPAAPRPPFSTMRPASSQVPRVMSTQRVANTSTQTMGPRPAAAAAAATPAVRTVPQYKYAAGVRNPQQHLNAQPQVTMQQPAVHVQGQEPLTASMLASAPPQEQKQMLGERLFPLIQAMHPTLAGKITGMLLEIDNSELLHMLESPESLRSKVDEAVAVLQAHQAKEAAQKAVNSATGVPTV
T2 sequence (Q9UBE0 whole entry): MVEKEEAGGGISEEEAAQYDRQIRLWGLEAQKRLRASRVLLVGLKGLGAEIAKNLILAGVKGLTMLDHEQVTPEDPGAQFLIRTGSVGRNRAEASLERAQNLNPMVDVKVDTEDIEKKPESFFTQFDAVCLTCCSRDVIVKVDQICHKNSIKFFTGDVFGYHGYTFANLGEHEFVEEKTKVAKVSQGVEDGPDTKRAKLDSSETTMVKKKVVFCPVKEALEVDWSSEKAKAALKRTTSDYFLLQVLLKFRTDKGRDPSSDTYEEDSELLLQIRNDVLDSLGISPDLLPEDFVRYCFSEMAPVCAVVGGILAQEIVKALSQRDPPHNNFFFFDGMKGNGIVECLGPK
T2 sequence (Q9UBT2 whole entry): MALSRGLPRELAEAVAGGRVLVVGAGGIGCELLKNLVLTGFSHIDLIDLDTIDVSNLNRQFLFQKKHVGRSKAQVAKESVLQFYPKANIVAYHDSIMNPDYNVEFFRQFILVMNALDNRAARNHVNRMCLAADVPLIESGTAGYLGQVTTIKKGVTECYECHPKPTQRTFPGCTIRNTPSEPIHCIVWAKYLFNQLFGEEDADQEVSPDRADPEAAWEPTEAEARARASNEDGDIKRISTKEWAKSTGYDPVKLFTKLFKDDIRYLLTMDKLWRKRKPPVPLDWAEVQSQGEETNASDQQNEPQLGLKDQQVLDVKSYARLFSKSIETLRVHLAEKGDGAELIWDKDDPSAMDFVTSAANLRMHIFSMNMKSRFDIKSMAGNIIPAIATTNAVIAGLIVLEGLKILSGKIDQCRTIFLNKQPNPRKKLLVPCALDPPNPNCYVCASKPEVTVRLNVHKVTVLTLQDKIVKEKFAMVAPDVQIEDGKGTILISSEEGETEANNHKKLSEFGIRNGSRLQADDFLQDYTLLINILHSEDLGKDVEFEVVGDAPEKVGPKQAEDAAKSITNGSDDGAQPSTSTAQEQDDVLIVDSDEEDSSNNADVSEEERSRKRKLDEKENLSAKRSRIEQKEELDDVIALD
T1 sequence (Q00975 whole entry): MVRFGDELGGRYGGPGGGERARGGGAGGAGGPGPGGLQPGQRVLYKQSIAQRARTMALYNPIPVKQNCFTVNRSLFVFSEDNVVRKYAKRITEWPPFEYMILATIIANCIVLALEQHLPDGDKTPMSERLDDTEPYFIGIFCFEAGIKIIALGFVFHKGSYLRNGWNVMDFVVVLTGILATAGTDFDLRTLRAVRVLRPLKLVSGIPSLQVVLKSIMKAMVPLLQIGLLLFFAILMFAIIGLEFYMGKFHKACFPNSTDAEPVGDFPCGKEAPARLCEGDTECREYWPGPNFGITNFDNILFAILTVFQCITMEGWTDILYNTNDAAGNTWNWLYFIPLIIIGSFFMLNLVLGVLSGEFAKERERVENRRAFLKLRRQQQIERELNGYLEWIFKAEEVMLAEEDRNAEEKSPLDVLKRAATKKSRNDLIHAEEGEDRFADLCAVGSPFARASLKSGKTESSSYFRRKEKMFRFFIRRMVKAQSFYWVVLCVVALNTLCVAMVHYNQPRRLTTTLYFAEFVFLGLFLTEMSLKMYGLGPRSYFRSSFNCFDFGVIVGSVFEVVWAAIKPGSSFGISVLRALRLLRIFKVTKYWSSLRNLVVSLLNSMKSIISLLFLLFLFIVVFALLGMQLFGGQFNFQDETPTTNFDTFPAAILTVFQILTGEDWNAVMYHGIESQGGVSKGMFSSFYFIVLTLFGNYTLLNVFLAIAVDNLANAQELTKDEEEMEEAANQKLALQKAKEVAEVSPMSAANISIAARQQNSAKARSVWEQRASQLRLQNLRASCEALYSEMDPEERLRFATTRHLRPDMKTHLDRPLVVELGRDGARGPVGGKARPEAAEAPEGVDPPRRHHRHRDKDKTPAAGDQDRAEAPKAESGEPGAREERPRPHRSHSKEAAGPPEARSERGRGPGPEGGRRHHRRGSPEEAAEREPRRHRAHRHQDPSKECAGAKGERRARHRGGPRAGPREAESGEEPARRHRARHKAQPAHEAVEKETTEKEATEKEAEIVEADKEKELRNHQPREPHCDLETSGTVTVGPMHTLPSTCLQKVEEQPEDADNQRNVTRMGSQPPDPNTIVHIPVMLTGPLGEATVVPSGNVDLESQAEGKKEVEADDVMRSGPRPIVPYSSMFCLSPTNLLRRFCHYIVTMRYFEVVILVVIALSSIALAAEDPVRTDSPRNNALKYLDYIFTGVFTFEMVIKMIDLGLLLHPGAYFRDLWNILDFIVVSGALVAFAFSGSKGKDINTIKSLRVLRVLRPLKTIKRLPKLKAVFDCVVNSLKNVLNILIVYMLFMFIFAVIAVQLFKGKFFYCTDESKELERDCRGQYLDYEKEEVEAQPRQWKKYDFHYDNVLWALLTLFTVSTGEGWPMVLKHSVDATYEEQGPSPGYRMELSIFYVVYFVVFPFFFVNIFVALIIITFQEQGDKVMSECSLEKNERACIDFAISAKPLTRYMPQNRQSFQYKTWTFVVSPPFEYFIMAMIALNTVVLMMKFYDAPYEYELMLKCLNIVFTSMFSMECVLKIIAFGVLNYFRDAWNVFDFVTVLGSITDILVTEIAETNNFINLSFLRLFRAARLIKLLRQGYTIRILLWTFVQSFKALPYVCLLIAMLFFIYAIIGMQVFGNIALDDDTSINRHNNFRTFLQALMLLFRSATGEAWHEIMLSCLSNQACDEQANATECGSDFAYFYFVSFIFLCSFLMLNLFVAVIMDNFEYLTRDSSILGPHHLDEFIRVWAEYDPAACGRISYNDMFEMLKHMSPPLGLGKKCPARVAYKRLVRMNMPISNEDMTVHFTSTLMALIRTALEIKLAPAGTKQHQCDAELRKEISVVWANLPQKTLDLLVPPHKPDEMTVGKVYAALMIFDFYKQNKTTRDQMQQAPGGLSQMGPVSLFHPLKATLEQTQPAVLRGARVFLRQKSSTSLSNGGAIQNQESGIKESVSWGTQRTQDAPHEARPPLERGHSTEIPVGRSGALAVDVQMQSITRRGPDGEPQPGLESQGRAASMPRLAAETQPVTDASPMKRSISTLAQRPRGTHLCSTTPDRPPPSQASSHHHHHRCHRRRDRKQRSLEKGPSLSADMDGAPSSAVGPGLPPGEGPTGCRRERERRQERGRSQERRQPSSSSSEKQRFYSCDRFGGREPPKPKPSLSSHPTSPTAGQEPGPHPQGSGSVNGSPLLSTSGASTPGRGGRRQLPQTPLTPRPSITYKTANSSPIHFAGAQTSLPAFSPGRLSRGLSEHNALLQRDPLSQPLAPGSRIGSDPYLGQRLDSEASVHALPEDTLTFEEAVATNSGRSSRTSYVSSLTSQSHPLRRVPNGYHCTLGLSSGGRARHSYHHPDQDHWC
T1 sequence (Q02410 whole entry): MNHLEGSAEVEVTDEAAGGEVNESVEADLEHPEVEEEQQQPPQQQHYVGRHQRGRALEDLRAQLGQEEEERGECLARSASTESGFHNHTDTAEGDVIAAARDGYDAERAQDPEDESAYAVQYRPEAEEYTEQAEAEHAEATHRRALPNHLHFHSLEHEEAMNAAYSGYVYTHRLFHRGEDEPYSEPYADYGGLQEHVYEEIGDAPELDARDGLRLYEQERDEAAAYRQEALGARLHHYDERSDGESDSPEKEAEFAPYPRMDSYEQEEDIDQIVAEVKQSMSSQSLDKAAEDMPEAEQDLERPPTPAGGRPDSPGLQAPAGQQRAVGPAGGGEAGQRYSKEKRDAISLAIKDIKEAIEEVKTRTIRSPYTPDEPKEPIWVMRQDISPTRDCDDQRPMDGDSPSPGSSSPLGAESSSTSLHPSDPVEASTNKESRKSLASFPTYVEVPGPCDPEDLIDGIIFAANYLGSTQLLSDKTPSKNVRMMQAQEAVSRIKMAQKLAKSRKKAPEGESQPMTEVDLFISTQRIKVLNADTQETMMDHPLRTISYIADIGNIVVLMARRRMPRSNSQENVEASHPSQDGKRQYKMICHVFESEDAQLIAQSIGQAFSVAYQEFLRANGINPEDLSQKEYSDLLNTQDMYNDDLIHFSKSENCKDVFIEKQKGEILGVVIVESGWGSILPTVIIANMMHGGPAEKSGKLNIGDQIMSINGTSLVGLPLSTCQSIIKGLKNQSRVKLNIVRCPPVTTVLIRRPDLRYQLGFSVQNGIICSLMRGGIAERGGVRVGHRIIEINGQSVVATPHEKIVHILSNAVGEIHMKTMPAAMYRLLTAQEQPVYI

CCOC(=O)c1c2ccc(OCC(=O)NN)cc2n2ccccc12
IC50 [1]: 2.73 µM (active)
IC50 [2]: 1.64 µM (active)
IC50 [3]: 33.6 µM (inactive)
AC50 [4]: > 52 µM (inactive)
IC50 [5]: 18.5 µM (active)
IC50 [6]: 62.8 µM (inactive)
IC50 [7]: 40.2 µM (active)
IC50 [8]: > 50 µM (not active)
IC50 [9]: 6.82 µM (active)
IC50 [10]: > 66 µM (inactive)

CC(=O)c1ccc(N2CCN(C(=O)Cc3cccs3)CC2)cc1
AC50 [11]: > 52 µM (inactive)
AC50 [12]: 3.82 µM (active)
AC50 [13]: > 52 µM (inactive)
AC50 [14]: 11.6 µM (active)

O=C(Nc1cccc(S(=O)(=O)Nc2ccc(Cl)cc2)c1)c1cc2c(s1)CCCC2
EC50 [15]: 1.09 µM (active)
AC50 [16]: 2.28 µM (active)
IC50 [17]: > 69.5 µM (inactive)
EC50 [18]: 2.51 µM (active)
EC50 [19]: 5.01 µM (active)
EC50 [20]: 10.9 µM (active)
EC50 [21]: 1.98 µM (active)

O=C(O)c1cc(-c2cccs2)[nH]n1
EC50 [22]: > 67.6 µM (inactive)

Cc1cc(=O)n(C2CCS(=O)(=O)C2)[nH]1 (stereo not given)
EC50 [23]: 1.91 µM (active)
AC50 [24]: 3.43 µM (active)
IC50 [25]: > 128 µM (inactive)
